Test results reported in article PMC8599534, “Isoprenylated Flavonoids as Cav3.1 Low Voltage-Gated Ca^2+ Channel Inhibitors from Salvia digitaloides” (Natural Products and Bioprospecting, 2021).

Target: T1, Cav3.1 low voltage-gated Ca^2+ channel (Homo sapiens, UniProt O43497)
T1 construct: gene CACNA1G
Test: electrophysiology: peak-current inhibition in HEK […] cells expressing human Cav3.[…]
Type: cell-based

T1 sequence (O43497 whole entry): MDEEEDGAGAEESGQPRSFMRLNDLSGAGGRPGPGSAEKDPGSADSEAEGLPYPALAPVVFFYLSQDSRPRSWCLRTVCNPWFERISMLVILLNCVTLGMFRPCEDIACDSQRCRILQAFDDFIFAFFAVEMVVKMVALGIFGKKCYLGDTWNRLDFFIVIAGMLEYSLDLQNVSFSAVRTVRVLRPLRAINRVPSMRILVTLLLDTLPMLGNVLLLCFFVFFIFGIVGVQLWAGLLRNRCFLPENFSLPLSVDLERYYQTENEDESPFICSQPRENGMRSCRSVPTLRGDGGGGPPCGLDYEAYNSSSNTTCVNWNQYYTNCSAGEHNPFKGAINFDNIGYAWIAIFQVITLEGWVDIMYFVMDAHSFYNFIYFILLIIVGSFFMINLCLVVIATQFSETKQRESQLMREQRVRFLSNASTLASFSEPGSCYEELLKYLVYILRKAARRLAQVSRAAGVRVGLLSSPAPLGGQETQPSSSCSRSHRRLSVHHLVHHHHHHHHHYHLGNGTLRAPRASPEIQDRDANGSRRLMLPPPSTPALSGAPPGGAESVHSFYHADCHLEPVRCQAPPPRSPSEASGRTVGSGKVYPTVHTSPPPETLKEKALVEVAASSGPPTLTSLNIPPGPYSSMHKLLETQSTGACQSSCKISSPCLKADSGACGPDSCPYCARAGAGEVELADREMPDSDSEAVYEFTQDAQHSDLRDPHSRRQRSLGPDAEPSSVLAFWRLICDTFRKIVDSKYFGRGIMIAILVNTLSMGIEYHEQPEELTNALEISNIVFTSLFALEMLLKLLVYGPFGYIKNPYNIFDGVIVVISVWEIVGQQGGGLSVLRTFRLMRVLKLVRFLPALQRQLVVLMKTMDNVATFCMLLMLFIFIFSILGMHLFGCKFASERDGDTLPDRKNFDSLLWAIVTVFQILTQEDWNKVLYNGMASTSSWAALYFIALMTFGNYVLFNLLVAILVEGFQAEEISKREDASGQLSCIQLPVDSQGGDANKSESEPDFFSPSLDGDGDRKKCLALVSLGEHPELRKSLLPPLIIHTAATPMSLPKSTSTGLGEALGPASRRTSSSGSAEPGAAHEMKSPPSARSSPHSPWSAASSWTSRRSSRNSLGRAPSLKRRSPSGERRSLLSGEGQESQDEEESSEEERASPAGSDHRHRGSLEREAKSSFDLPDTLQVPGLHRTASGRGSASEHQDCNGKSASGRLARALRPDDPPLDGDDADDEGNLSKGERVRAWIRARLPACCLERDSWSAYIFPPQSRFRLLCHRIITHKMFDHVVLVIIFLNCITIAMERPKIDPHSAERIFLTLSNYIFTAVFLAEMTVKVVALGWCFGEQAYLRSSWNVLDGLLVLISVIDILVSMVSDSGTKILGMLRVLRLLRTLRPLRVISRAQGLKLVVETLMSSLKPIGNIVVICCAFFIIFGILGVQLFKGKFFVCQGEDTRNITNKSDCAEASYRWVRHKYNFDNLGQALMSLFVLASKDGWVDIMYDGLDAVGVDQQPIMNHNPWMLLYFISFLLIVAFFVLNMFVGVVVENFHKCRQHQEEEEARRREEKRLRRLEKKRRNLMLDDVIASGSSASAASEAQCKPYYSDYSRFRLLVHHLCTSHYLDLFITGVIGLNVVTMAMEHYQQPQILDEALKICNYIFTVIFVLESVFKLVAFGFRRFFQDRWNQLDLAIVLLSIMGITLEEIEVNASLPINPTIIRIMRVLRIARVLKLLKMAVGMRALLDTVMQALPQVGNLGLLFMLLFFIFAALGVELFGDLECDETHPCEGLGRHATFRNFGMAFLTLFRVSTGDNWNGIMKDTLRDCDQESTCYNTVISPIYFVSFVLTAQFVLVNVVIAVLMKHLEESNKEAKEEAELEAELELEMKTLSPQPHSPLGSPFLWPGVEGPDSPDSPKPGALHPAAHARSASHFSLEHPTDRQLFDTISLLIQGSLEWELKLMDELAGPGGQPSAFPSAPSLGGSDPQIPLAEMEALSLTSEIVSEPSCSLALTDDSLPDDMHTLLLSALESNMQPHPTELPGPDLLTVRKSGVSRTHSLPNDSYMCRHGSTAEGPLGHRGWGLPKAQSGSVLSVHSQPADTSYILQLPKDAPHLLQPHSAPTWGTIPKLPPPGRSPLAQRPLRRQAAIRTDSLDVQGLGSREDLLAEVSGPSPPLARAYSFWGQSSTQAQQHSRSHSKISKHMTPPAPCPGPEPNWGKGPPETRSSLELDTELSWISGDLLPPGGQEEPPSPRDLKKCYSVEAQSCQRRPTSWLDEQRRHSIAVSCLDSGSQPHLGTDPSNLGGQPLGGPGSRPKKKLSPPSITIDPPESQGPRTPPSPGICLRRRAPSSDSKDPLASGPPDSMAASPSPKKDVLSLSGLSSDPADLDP

Q: With `CC(C)=CCc1c([C@@H]2CC(=O)c3c(O)cc(O)c(CC=C(C)C)c3O2)cc2c(c1O)OC(C)(C)C=C2` [compound 2, 5,7,3′-trihydroxy-4′,5′-(2⁗,2⁗-dimethylpyran)-8,2′-di(3-methyl-2-butenyl)-(2S)-flavanone] as the molecule, how does the IC50 read?
A: The IC50 was 3.5 µM.
